The numbers were not newly measured in patent publication US8372933B2, “Hyperbranched polymers based on cyclodextrins and poly (amidoamines) for the controlled release of insoluble drugs” (L'Urederra Fundacion Para el Desarrollo Tecnologico y Social, priority 2007, dated 2013), which cites them from elsewhere.

The conditions of the series: oral.

On to `Nc1nc2c(ncn2COCCO)c(=O)[nH]1` [Acyclovir], for which the bioavailability is 15-30%.
